In the supplement of paper PMC10307832:

Legend:
Assay in all cases: relative viability (nuclei count vs DMSO), 5 days (fraction); higher = more cells survive
NCI-H1355 = test system: NCI-H1355
Summary of the method: (§1)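 Dosing by pin tool came one day after lung cancer cell lines were seeded in 1536-well plates, using either one drug or a fixed anchor-drug dose plus five library-drug doses (not always all listed) in √10 steps. After 5 days, nuclei were counted on 4× images. Relative viability is treated-well nuclei count divided by vehicle-well nuclei count, and values are medians of duplicate plates.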

NCI-H647 = test system: NCI-H647
Summary of the method: as §1

HCC-15 = test system: HCC-15
Summary of the method: as §1

HOP-62 = test system: HOP-62
Summary of the method: as §1

NCI-H2170 = test system: NCI-H2170
Summary of the method: as §1

NCI-H838 = test system: NCI-H838
Summary of the method: as §1

NCI-H1734 = test system: NCI-H1734
Summary of the method: as §1

NCI-H522 = test system: NCI-H522
Summary of the method: as §1

NCI-H2009 = test system: NCI-H2009
Summary of the method: as §1

UMC-11 = test system: UMC-11
Summary of the method: as §1

HARA = test system: HARA
Summary of the method: as §1

COc1cc2nccc(Oc3ccc(NC(=O)Nc4cc(C)on4)c(Cl)c3)c2cc1OC [Tivozanib] + O=C(c1cc(Cc2n[nH]c(=O)c3ccccc23)ccc1F)N1CCN(C(=O)C2CC2)CC1 [Olaparib] (partner 8 µM)
relative viability (NCI-H1355; first compound 0.005 µM): 0.732
relative viability (NCI-H1355; first compound 0.01581 µM): 0.755
relative viability (NCI-H1355; first compound 0.05 µM): 0.765
relative viability (NCI-H1355; first compound 0.1581 µM): 0.672
relative viability (NCI-H1355; first compound 0.5 µM): 0.753
relative viability (NCI-H647; first compound 0.005 µM): 0.505
relative viability (NCI-H647; first compound 0.01581 µM): 0.529
relative viability (NCI-H647; first compound 0.05 µM): 0.63
relative viability (NCI-H647; first compound 0.1581 µM): 0.56
relative viability (NCI-H647; first compound 0.5 µM): 0.437
relative viability (HCC-15; first compound 0.005 µM): 0.661
relative viability (HCC-15; first compound 0.01581 µM): 0.709
relative viability (HCC-15; first compound 0.05 µM): 0.755
relative viability (HCC-15; first compound 0.1581 µM): 0.696
relative viability (HCC-15; first compound 0.5 µM): 0.553
relative viability (HOP-62; first compound 0.005 µM): 0.472
relative viability (HOP-62; first compound 0.01581 µM): 0.405
relative viability (HOP-62; first compound 0.05 µM): 0.324
relative viability (HOP-62; first compound 0.1581 µM): 0.537
relative viability (HOP-62; first compound 0.5 µM): 0.37
relative viability (NCI-H2170; first compound 0.005 µM): 0.484
relative viability (NCI-H2170; first compound 0.01581 µM): 0.596
relative viability (NCI-H2170; first compound 0.05 µM): 0.642
relative viability (NCI-H2170; first compound 0.5 µM): 0.523
relative viability (NCI-H838; first compound 0.005 µM): 0.785
relative viability (NCI-H838; first compound 0.01581 µM): 0.785
relative viability (NCI-H838; first compound 0.05 µM): 0.825
relative viability (NCI-H838; first compound 0.1581 µM): 0.828
relative viability (NCI-H838; first compound 0.5 µM): 0.773
relative viability (NCI-H1734; first compound 0.005 µM): 0.716
relative viability (NCI-H1734; first compound 0.01581 µM): 0.6
relative viability (NCI-H1734; first compound 0.05 µM): 0.743
relative viability (NCI-H1734; first compound 0.1581 µM): 0.564
relative viability (NCI-H1734; first compound 0.5 µM): 0.609
relative viability (NCI-H522; first compound 0.005 µM): 0.627
relative viability (NCI-H522; first compound 0.01581 µM): 0.635
relative viability (NCI-H522; first compound 0.05 µM): 0.651
relative viability (NCI-H522; first compound 0.1581 µM): 0.591
relative viability (NCI-H522; first compound 0.5 µM): 0.512
relative viability (NCI-H2009; first compound 0.005 µM): 0.655
relative viability (NCI-H2009; first compound 0.01581 µM): 0.703
relative viability (NCI-H2009; first compound 0.05 µM): 0.751
relative viability (NCI-H2009; first compound 0.1581 µM): 0.714
relative viability (NCI-H2009; first compound 0.5 µM): 0.542
relative viability (UMC-11; first compound 0.005 µM): 0.373
relative viability (UMC-11; first compound 0.01581 µM): 0.393
relative viability (UMC-11; first compound 0.05 µM): 0.456
relative viability (UMC-11; first compound 0.1581 µM): 0.33
relative viability (UMC-11; first compound 0.5 µM): 0.415
relative viability (HARA; first compound 0.005 µM): 0.606
relative viability (HARA; first compound 0.01581 µM): 1.07
relative viability (HARA; first compound 0.05 µM): 0.763
relative viability (HARA; first compound 0.1581 µM): 1.15
